Assay results published in patent publication US20140024663A1, “ATB(0,+) AMINO ACID TRANSPORTER AS A DRUG TARGET FOR TREATMENT OF ESTROGEN RECEPTOR-POSITIVE BREAST CANCER” (GEORGIA HEALTH SCIENCES UNIVERSITY RESEARCH INSTITUTE, INC., priority 2012, published 2014).

Tests used:
Format in all cases: cell-based, human
MB231 cells = experiment: Analysis of autophagy (LC3 localization); details: MB231, α-MT 2.5 mM, 48 h
Method: (§1) FIGS. 6A to 6C. Effects of SLC6A14 blockade with α-MT in breast cancer cells. In FIG. 6A, MCF10A (a non-malignant mammary epithelial cell line), MCF7 (an ER-positive breast cancer cell line), and MB231 (an ER-negative breast cancer cell line) cells were treated with or without 2.5 mM α-MT for 24, 48, or 72 h and then used for analysis of asparagine synthetase (ASNS) and CHOP mRNA levels. In FIG. 6B, MCF7, MB231 and MCF10A cells were treated with or without 2.5 mM α-MT for 48 h and then used for immunocytochemical analysis of the constitutively expressed LC-3. In FIG. 6C, MCF7 cells were treated with (“b” and “c”) or without (“a”) α-MT (2.5 mM) for 48 h and then used for electron microscopy. […]
(§2) Analysis of autophagy. Autophagy was analyzed as described previously (Periyasamy-Thandavan et al., 2010, Autophagy; 6:19-35; and Samaddar et al., 2008, Mol Cancer Ther; 7:2977-2987) by monitoring the localization pattern of constitutively expressed LC3 as well as that of ectopically expressed GFP-LC3. […] At the end of the treatment, cells were fixed with 4% paraformaldehyde and examined by fluorescence microscopy to count the number of cells with punctate GFP-LC3. Autophagosomal proteolysis was quantified as described previously (Periyasamy-Thandavan et al., 2010, Autophagy; 6:19-35). […]

MCF10A cells = experiment: Analysis of autophagy (LC3 localization); details: α-MT 2.5 mM, 48 h
Method: as §1, §2

MCF7 cells = experiment: ASNS and CHOP mRNA by RT-PCR as readout for amino acid deprivation
Method: FIGS. 6A to 6C. Effects of SLC6A14 blockade with α-MT in breast cancer cells. In FIG. 6A, MCF10A (a non-malignant mammary epithelial cell line), MCF7 (an ER-positive breast cancer cell line), and MB231 (an ER-negative breast cancer cell line) cells were treated with or without 2.5 mM α-MT for 24, 48, or 72 h and then used for analysis of asparagine synthetase (ASNS) and CHOP mRNA levels. In FIG. 6B, MCF7, MB231 and MCF10A cells were treated with or without 2.5 mM α-MT for 48 h and then used for immunocytochemical analysis of the constitutively expressed LC-3. In FIG. 6C, MCF7 cells were treated with (“b” and “c”) or without (“a”) α-MT (2.5 mM) for 48 h and then used for electron microscopy. Arrows indicate sequestration of cytoplasm and organelles in pre-autophagosomes and autophagosome, and the asterisk indicates condensed chromatin. N, nucleus. FIGS. 8A and 8B. Influence of α-MT on ASNS and CHOP mRNA levels in control MCF7 cells and in MCF7 cells with shRNA-induced silencing of SLC6A14. In FIG. 8A, five different SLC6A14-specific shRNAs were tested in MCF7 cells using a lentivirus-based system to monitor their efficacy to silence SLC6A14. SLC6A14 mRNA levels were measured by RT-PCR with GAPDH as an internal control. c, control. In FIG. 8B, SLC6A14 was silenced in MCF7 cells with shRNA-4 using a lentivirus-based system and then treated without or with α-MT (2.5 mM, 48 h). RNA isolated from the cells was then used for RT-PCR to monitor the levels of asparagine synthetase (ASNS) and CHOP mRNAs. FIG. 11. Estrogen-dependent suppression of the efficacy of α-MT to induce ASNS and CHOP expression in MCF7 cells. MCF7 cells were cultured in a phenol red-free medium in the absence or presence of estradiol (E2, 10 nM) for 24 h and then treated without or with α-MT (2.5 mM, 24 h). The cells were then used for analysis of SLC6A14, asparagine synthetase (ASNS), and CHOP mRNA levels by RT-PCR. Hypoxanthine/guanine phosphoribosyltransferase-1 (HPRT1) mRNA levels were used as an internal control. RT-PCR. Total RNA was isolated using TRIZOL™ (Invitrogen). 2 μg of RNA was reverse transcribed using the GeneAmp PCR System (Applied Biosystems, Branchburg, N.J.). PCR reaction was performed under optimal conditions specific for each of the primer pairs. GAPDH (glyceraldehyde-3-phosphate dehydrogenase) or HPRT1 (hypoxanthine/guanine phosphoribosyl transferase-1) were used as internal controls. PCR products were size-fractionated on agarose gel, stained with ethidium bromide and imaged using Alpha Imager (Santa Clara, Calif.). Densitometry was performed on PCR bands and normalized to the internal control. Normalized values were used to compare mRNA levels of target genes. Primers used for PCR were as follows.

CC(N)(Cc1c[nH]c2ccccc12)C(=O)O (racemic) [α-MT, α-methyl-DL-tryptophan]
autophagy (LC3 localization) (MB231 cells): did not undergo autophagy
autophagy (LC3 localization) (MCF10A cells): did not undergo autophagy
levels of asparagine synthetase mRNA and CHOP mRNA (MCF7 cells; MCF7, α-MT 2.5 mM, 24, 48 or 72 h): increased
α-MT-induced increase of asparagine synthetase and CHOP expression (MCF7 cells; MCF7 cells transfected with vector carrying shRNA #4 (SLC6A14 silenced), α-MT 2.5 mM, 48 h): markedly attenuated
magnitude of α-MT-induced asparagine synthetase and CHOP expression (MCF7 cells; MCF7 cells treated with estradiol 10 nM, phenol red-free medium, α-MT 2.5 mM, 24 h): significantly reduced
expression levels of asparagine synthetase and CHOP (MCF7 cells; MCF7 control cells transfected with empty vector, α-MT 2.5 mM, 48 h): increased
expression of asparagine synthetase and CHOP (MCF7 cells; MCF7 control cells, phenol red-free medium, absence of estradiol, α-MT 2.5 mM, 24 h): induced the expression
